The source of these data is patent US20230104487A1, “11-(4-CHLOROPHENYL)-4-(2,3-DIHYDRO-1H-INDOLE-1-CARBONYL)-3,11-DIMETHYL-5,10,DIOXATRICYCLO[7.4.0.0,2,6,]TRIDECA-1,3,6,8-TETRAEN-13-ONE AND DERIVATIVES AS DESTABILIZER OF CRY1 FOR THE TREATMENT OF CIRCADIAN RHYTHM ASSOCIATED DISEASES AND DISORDERS” (KOC UNIVERSITESI, priority 2019, published 2023).

The structures appear in SMILES notation. “Also recorded” adds a separate entry of the source.

For data set [1], the system named is NIH 3T3 Per2-dLuc cells. The data set can be described thus: Real-time monitoring of circadian rhythm, NIH 3T3 Per2-dLuc. Type of data set: cell-based. Particulars: dose dependent. The procedure:
Luminescence values were recorded at 32° C. for each 30 minutes with 15 seconds integration time via Synergy H1 luminometer for a week. For LumiCycle, 400×10^3 U2-OS Bmal1-dLuc or NIH3T3 mPer2-dLuc cells were seeded to 35 mm plates and then procedure given above was followed with a change in the last step. Plates were sealed with vacuum grease and placed to LumiCycle. Each plate was recorded continuously every 10 minutes for 70 seconds at 37° C. via photomultiplier tubes. Period and amplitude data were obtained from LumiCycle Analysis software. To detect the effect of FORMULA I in the absence of CRYs, Cry1^−/−/Cry2^−/− mouse embryonic fibroblasts (CRYDKO MEFs) transiently transfected with pGL3-Per2-Luc (luciferase reporter) were used. 3×10^5 CRYDKO cells were seeded in 35 mm clear plates. Next day, cells were transfected with 4000 ng pGL3-Per2-Luc via Fugene6 transfection reagent according to the manufacturer's instruction. In short, 3:1 ratio of Fugene6 in μl against transfected DNA amount in μg was kept in transfections. 72 h after transfection cells were synchronized with DXM for two hours. Then, medium was changed with lumicycle medium having DMSO or molecule, sealed with vacuum grease, and placed to LumiCycle.

A short description of data set [2]: Brain tissue levels in mice. The class given is in vivo, mouse. Particulars: 100 mg/kg i.p. The protocol:
C57BL/6J female mice (n=4 per each time point) were treated with 100 mg/kg single dose of FORMULA I intraperitoneally. Blood samples were collected 0, 0.5, 1, 2, 4, 8, 12 and 24 h after administration of FORMULA I by cardiac puncture under isoflurane anesthesia. Plasma was obtained by centrifugation from heparinized tubes and stored at −80° C. until analysis. Brain tissues were quickly removed and stored at −80° C. for further processing. For assessment of the brain exposure of FORMULA I, levels in this tissue were only determined at 2nd (n=2) and 4th (n=2) hours according to maximum concentrations of the molecule in plasma.
Liquid chromatography coupled to tandem mass spectrometry (LC-MS/MS) was used to obtain high mass accuracy data of the analytes in plasma samples for the determination of FORMULA I and Internal standard (IS) Loratadine. […] The optimized conditions of the electrospray ionization (ESI) source were as follows: gas temperature, 300° C.; gas flow, 10 L/min; nebulizer pressure, 25 psi; capillary voltage, 5500 V. ESI in the positive ion mode provides the best results for FORMULA I. For MS-MS detection, the protonated molecules were selected as precursor ions and the most abundant fragment ions obtained at collision energy of 22-20 eV were monitored as the product ions for FORMULA I and IS. […]

Data set [3] relates to Per2. The data set can be described thus: Per2 mRNA in mouse liver (qPCR). Type of data set: in vivo. The settings on record: 25 and 50 mg/kg i.p., 6 h. The procedure:
FIGS. 5A-5G are an illustration of FORMULA I decreased the nuclear CRY1 in mice liver. FORMULA I (25 mg/kg or 50 mg/kg) or vehicle intraperitoneally administered to C57BL/6J mice. 6 h after the treated mice were sacrificed (n=3). […] FIGS. 5A-5B show an effect of FORMULA I in WCL. FIG. 5C-5D show an effect of FORMULA I in cytosolic fraction. FIGS. 5E-5F show an effect of FORMULA I in nuclear fraction of muce liver. […] (Data represent the mean±SEM, n=3 (with duplicates in RT-PCR) *: p<0.05 versus control by student t-test).
QIAGEN RNeasy Mini Kit was used to isolate the mRNA. Protocol provided by the manufacturer was followed. On-column DNase treatment was performed with the DNase enzyme provided with the kit. […] Quantity of RNA was determined by Nanodrop 2000 (Thermo Scientific). […] For quantitative real time PCR (qRT-PCR) analysis cDNAs were further diluted 5-fold (1:5). mRNA expression levels were calculated by qRT-PCR with the SYBR Green. […] 10 seconds denaturation, 57 to 62° C. for 20 seconds annealing (the degree is determined by primer type) and 72° C. for 30 seconds of elongation, 35 cycles. […]
Since CRYs are stabilized and degraded differently in cytosolic and nuclear compartments, we further analyzed the level of CRY1 in the cytosolic and nuclear fraction of the mouse liver. […]
On the technique in general: In qPCR the cycle at which signal appears reflects the starting amount.

Data set [4] can be described thus: Plasma pharmacokinetics in mice. Particulars: female, C57BL/6J, mouse, ip, 100 mg/kg, single dose, i.p., read-out: AUC0-24. The class given is in vivo.

As for `Cc1c(C(=O)N2CCc3ccccc32)oc2ccc3c(c12)C(=O)CC(C)(c1ccc(Cl)cc1)O3` (centres unmarked) [FORMULA I, 11-(4-chlorophenyl)-4-(2,3-dihydro-1H-indole-1-carbonyl)-3,11-dimethyl-5,10,dioxatricyclo[7.4.0.0,2,6,]trideca-1,3,6,8-tetraen-13-one], the “effect on circadian rhythm” value in data set [1] was “exhibited similar phenotype”. In addition, the blood-brain barrier crossing entry in data set [2] is “crosses the blood-brain barrier”. Further, in data set [2] (2nd and 4th hours), the “detection in brain tissue” value is reported as “detected in the brain tissue”. In data set [3], the “Per2 mRNA level in liver” value is “significantly increased; also recorded: increased the mRNA level of Per2”. In data set [4], the AUC(0-t) came out at 4920 ± 3070 ng·h/mL.
